Measurements: patent publication US9908848B2, “Amide derivatives of lactam based N-acylethanolamine acid amidase (NAAA) inhibitors” (The Regents of the University of California, priority 2013, dated 2018)

What follows are molecules tested on carrageenan-induced paw edema and heat hyperalgesia (assay: Carrageenan-induced inflammation (paw edema, heat hyperalgesia)). Settings: mice, oral administration (p.o.), 3-30 mg/kg, dose- and time-dependent.
Type: in vivo
CCCCC/C=C/CC(=O)N[C@H]1CNC1=O [Example 5, (E)-N-[(3S)-2-Oxoazetidin-3-yl]-non-3-enamide] was tested, and the heat hyperalgesia was “markedly attenuated” and the paw edema was “markedly attenuated”.

The molecules below were run against T1, human NAAA (Homo sapiens, UniProt Q02083) (assay: Fluorogenic h-NAAA assay). Settings: @ 2.5 μM; read-out: h-NAAA Fluorogenic assay % inhib.
T1 construct: made in house; host or cells: HEK293 cells, stably transfected; soluble fraction after freeze/thaw
T1 sequence (Q02083 29-359): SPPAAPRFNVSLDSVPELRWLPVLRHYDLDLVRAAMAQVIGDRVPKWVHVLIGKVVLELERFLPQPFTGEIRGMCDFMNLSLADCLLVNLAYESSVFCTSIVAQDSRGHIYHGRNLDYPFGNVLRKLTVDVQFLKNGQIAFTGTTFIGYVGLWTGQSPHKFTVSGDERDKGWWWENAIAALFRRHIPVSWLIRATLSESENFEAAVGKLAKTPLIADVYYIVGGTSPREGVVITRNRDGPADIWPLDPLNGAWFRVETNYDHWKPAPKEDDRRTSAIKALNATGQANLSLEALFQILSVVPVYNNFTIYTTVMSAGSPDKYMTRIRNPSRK
Type: biochemical
Method: Hek293 cells stably transfected with the human NAAA coding sequence cloned from a human spleen cDNA library were used as enzyme source. Recombinant HEK-hNAAA pellets were resuspended in homogenizing buffer, and sonicated. Samples were centrifuged at 800×g for 15 min at 4° C. and the supernatants were ultracentrifuged at 12,000×g for 30 min at 4° C. The pellets were resuspended in PBS pH 7.4 on ice and subjected to a freeze/thaw cycle at −80° C. (two freeze/thaw cycles at −80° C. for Examples 34-37). The suspension was finally centrifuged at 105,000×g for 1 h at 4° C. Protein concentration was measured and samples stored at −80° C. until use.
The assay was run in Optiplate 96-wells black plates, in a total reaction volume of 200 μL. NAAA protein preparation (4.0 μg for Examples except 34-37, which were 20.0 μg) was pre-incubated for 10 min with various concentrations of test compounds or vehicle control (5% DMSO) in 100 mM citrate/phosphate buffer (pH 4.5) containing 3.0 mM DTT, 0.1% Triton X-100, 0.05% BSA, 150 mM NaCl. N-(4-methyl-2-oxo-chromen-7-yl)-hexadecanamide was used as a substrate (5.0 μM) and the reaction carried over for 30 min at 37° C. The samples were then read in a Perkin Elmer Envision plate reader using an excitation wavelength of 360 nm and emission 460 nm. IC50 values were calculated by non-linear regression analysis of log [concentration]/inhibition curves using GraphPad Prism 5 (GraphPad Software Inc., CA—USA) applying a standard slope curve fitting.
In the case of CCCCCCCCC(=O)N(C)[C@H]1CNC1=O [Example 27, N-Methyl-N-[(3S)-2-Oxoazetidin-3-yl]-nonanamide], the inhibition at 2.5 µM is reported as 20%.
CCCCc1ccc(C(=O)N[C@H]2CNC2=O)cc1 [Example 33, 4-Butyl-N-[(3S)-2-oxoazetidin-3-yl]-benzamide] showed an inhibition at 2.5 µM of 16%.

Same assay, conditions: @ 50 μM; read-out: h-NAAA Fluorogenic assay % inhib.
With C[C@@H]1NC(=O)[C@H]1NC(=O)CCc1ccc(-c2ccccc2)cc1 [Example 29, N-[(2S,3S)-2-methyl-4-oxo-azetidin-3-yl]-3-(4-phenylphenyl)-propanamide] the inhibition at 50 µM was 60%.
For O=C(CCc1ccccc1)N[C@H]1CNC1=O [Example 19, 3-Phenyl-N-[(3S)-2-oxoazetidin-3-yl]-propanamide], the inhibition at 50 µM was 15%.

Same assay, conditions: @100 μM
In the case of O=C(CCCCc1ccccc1)N[C@@H]1CNC1=O [Example 26, 5-Phenyl-N-[(3R)-2-oxoazetidin-3-yl]-pentanamide], the “h-NAAA Fluorogenic assay (n.a.)” value is reported as “n.a. (n.a. = <10% inhib.@100 μM)”.
In the case of O=C(CCc1ccccc1)N[C@@H]1CNC1=O [Example 20, 3-Phenyl-N-[(3R)-2-oxoazetidin-3-yl]-propanamide], the “h-NAAA Fluorogenic assay (n.a.)” value is reported as “n.a. (n.a. = <10% inhib.@100 μM)”.
O=C(CCc1ccc(-c2ccccc2)cc1)N[C@H]1CNC1=O [Example 18, 3-(4-Phenylphenyl)-N-[(3S)-2-oxoazetidin-3-yl]-propanamide] was tested, and the “h-NAAA Fluorogenic assay (n.a.)” value was “n.a. (n.a. = <10% inhib.@100 μM)”.

Same assay, conditions: recombinant HEK-hNAAA preparation
Molecule CCCCCCCC(C)C(=O)N[C@H]1CNC1=O (mixture of isomers) [Example 36, (2R)-2-methyl-N-[(3S)-2-oxoazetidin-3-yl]nonanamide and (2S)-2-methyl-N-[(3S)-2-oxoazetidin-3-yl]nonanamide] has an IC50 of 0.22 µM.
With CCCCCCCC(=O)N[C@H]1CNC1=O [Example 22, N-[(3S)-2-Oxoazetidin-3-yl]-octanamide] the IC50 was 0.93 µM.
CCCCCCCCC(=O)N[C@@H]1C(=O)N[C@H]1C [Example 28, N-[(2S,3S)-2-methyl-4-oxo-azetidin-3-yl]-nonanamide] showed an IC50 of 0.38 µM.
In the case of CCCCCCC(=O)N[C@H]1CNC1=O [Example 21, N-[(3S)-2-Oxoazetidin-3-yl]-heptanamide], the IC50 is reported as 7.83 µM.
With CCCCCCCC(C)(C)C(=O)N[C@H]1CNC1=O [Example 37, 2,2-dimethyl-N-[(3S)-2-oxoazetidin-3-yl]nonanamide] the IC50 was 0.758 µM.
For CCCc1ccc(CC(=O)N[C@H]2CNC2=O)cc1 [Example 35, N-[(3S)-2-oxoazetidin-3-yl]-2-(4-propylphenyl)acetamide], the IC50 was 15.6 µM.
CCCC[C@H]1CC[C@H](C(=O)N[C@H]2CNC2=O)CC1 [Example 34, (1r,4R)-4-butyl-N—((S)-2-oxoazetidin-3-yl)cyclohexanecarboxamide] gave an IC50 of 4.02 µM.
O=C(CCCCc1ccccc1)N[C@H]1CNC1=O [Example 25, 5-Phenyl-N-[(3S)-2-oxoazetidin-3-yl]-pentanamide] was tested, and the IC50 was 33.9 µM.
Molecule CCCCCCCCC(=O)N[C@@H]1CNC1=O [Example 4, N-[(3R)-2-Oxoazetidin-3-yl]-nonanamide] has an IC50 of 40 µM.
O=C(CCCc1ccccc1)N[C@H]1CNC1=O [Example 32, 4-Phenyl-N-[(3S)-2-oxoazetidin-3-yl]-butanamide] showed an IC50 of 110 µM.
Work on CCCCCCCCCCC(=O)N[C@H]1CNC1=O [Example 24, N-[(3S)-2-Oxoazetidin-3-yl]-undecanamide] yielded an IC50 of 0.043 µM.
O=C(CCCCCc1ccccc1)N[C@H]1CNC1=O [Example 31, 6-Phenyl-N-[(3S)-2-oxoazetidin-3-yl]-hexanamide] gave an IC50 of 13.4 µM.
With CCCCC/C=C/CC(=O)N[C@H]1CNC1=O [Example 5, (E)-N-[(3S)-2-Oxoazetidin-3-yl]-non-3-enamide] the IC50 was 1.34 µM.
With O=C(CCCCCC1CCCCC1)N[C@H]1CNC1=O [Example 17, 6-Cyclohexyl-N-[(3S)-2-oxoazetidin-3-yl]-hexanamide] the IC50 was 0.275 µM.
CCCCC/C=C\CC(=O)N[C@H]1CNC1=O [Example 6, (Z)—N-[(3S)-2-Oxoazetidin-3-yl]-non-3-enamide] showed an IC50 of 1.94 µM.

These molecules were tested against T2, r-NAAA (Rattus norvegicus, UniProt Q5KTC7) (assay: UPLC/MS r-NAAA assay). Settings: @ 3 μM; read-out: r-NAAA UPLC/MS assay % inhib.
T2 construct: Lysosomal NAAA protein preparation was obtained by homogenizing male Sprague-Dawley rat lungs; tissue Charles River; host or cells: male Sprague-Dawley rat lung, soluble lysosomal fraction
T2 sequence (Q5KTC7 34-362): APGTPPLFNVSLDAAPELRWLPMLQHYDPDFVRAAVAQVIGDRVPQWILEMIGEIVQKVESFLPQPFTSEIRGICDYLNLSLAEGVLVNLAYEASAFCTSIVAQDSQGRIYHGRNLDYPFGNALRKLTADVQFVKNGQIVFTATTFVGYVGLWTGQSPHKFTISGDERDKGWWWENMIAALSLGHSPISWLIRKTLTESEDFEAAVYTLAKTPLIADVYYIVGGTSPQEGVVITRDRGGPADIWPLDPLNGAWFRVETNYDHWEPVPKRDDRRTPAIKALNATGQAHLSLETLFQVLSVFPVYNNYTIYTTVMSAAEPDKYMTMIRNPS
Type: biochemical
Method: Lysosomal NAAA protein preparation was obtained by homogenizing male Sprague-Dawley rat lungs (Charles River) in 20 mM Tris-HCl buffer pH 7.4 containing 0.32M sucrose. Samples were centrifuged at 800×g for 15 min at 4° C. Supernatants were centrifuged at 12,000×g for 30 min at 4° C. Pellets were then resuspended in PBS pH 7.4 and subjected to a freeze/thaw cycle at −80° C. The suspension was finally centrifuged at 105,000 g for 1 h at 4° C. The supernatant was used in enzymatic assays.
NAAA preparations were pre-incubated with various concentrations of test compounds or vehicle control in 100 mM NaH2PO4/Citrate buffer, 1% Triton-X, 3 mM DTT (pH 4.5) for 30 min at 37° C. Samples were incubated with heptadecenoylethanolamide (50 μM, Avanti Polar Lipids) at 37° C. for 30 min. The reaction was terminated by addition of cold methanol containing heptadecanoic acid (NuCheck Prep) as internal standard. Samples were analyzed by UPLC/MS (Acquity, Waters). Heptadecenoic and heptadecanoic acids were eluted on an Acquity UPLC BEH C18 column (50 mm length, 2.1 mm i.d., 1.7 μm pore size, Waters) isocratically at 0.5 mL/min for 1.5 min with a solvent mixture of 95% methanol and 5% H2O, both containing 0.25% Acetic Acid and 5.0 mM ammonium acetate. The column temperature was 40° C. Electrospray ionization was in the negative mode, capillary voltage was 0.5 kV, cone voltage was […], desolvation temperature was 500° C. N2 was used as drying gas at a flow rate of 1000 L/hour and a temperature of 500° C. The [M−H]^− ion was monitored in the selected-ion monitoring mode (m/z values: heptadecenoic acid 267.37, heptadecanoic acid 269.37). Calibration curves were generated using commercial heptadecenoic acid (NuCheck Prep) Inhibition of NAAA activity was calculated as reduction of heptadecenoic acid in the samples compared to vehicle controls. IC50 values were calculated by non-linear regression analysis of log [concentration]/inhibition curves using GraphPad Prism 5 (GraphPad Software Inc., CA—USA) applying a standard slope curve fitting.
Work on O=C(N[C@@H]1CNC1=O)c1ccc(-c2ccccc2)cc1 [Example 2, 4-Phenyl-N-[(3R)-2-oxoazetidin-3-yl]-benzamide] yielded an inhibition at 3 µM of 10%.
Molecule CCCCCCCCC(=O)N(C)[C@H]1CNC1=O [Example 27, N-Methyl-N-[(3S)-2-Oxoazetidin-3-yl]-nonanamide] has an inhibition at 3 µM of 40%.
O=C(N[C@H]1CNC1=O)c1ccc(-c2ccccc2)cc1 [Example 1, 4-Phenyl-N-[(3S)-2-oxoazetidin-3-yl]-benzamide] showed an inhibition at 3 µM of 15%.
Molecule O=C(N[C@@H]1CNC1=O)c1ccc(OCc2ccccc2)cc1 [Example 12, 4-Benzyloxy-N-[(3R)-2-oxoazetidin-3-yl]-benzamide] has an inhibition at 3 µM of 10%.
In the case of O=C(CCCCCCc1ccccc1)N[C@@H]1CNC1=O [Example 8, 7-Phenyl-N-[(3R)-2-Oxoazetidin-3-yl]-heptanamide], the inhibition at 3 µM is reported as 30%.

Same assay, conditions: @ 30 μM; read-out: r-NAAA UPLC/MS assay % inhib.
O=C(CCCOCc1ccccc1)N[C@@H]1CNC1=O [Example 10, 4-Benzyloxy-N-[(3R)-2-oxoazetidin-3-yl]-butanamide] showed an inhibition at 30 µM of 10%.
With O=C(C/C=C/c1ccccc1)N[C@H]1CNC1=O [Example 15, (E)-N-[(3S)-2-Oxoazetidin-3-yl]-4-phenyl-but-3-enamide] the inhibition at 30 µM was 20%.
O=C(N[C@H]1CNC1=O)c1ccc(OCc2ccccc2)cc1 [Example 11, 4-Benzyloxy-N-[(3S)-2-oxoazetidin-3-yl]-benzamide] was tested, and the inhibition at 30 µM was 10%.

Same assay, conditions: @100 μM
In the case of CC1(C(=O)N[C@@H]2CNC2=O)CCCCC1 [Example 14, 1-Methyl-N-[(3R)-2-oxoazetidin-3-yl]-cyclohexane-carboxamide], the “r-NAAA UPLC/MS assay (n.a.)” value is reported as “n.a. (n.a. = <10% inhib.@100 μM)”.
In the case of O=C(CCCOCc1ccccc1)N[C@H]1CNC1=O [Example 9, 4-Benzyloxy-N-[(3S)-2-oxoazetidin-3-yl]-butanamide], the “r-NAAA UPLC/MS assay (n.a.)” value is reported as “n.a. (n.a. = <10% inhib.@100 μM)”.
For CC1(C(=O)N[C@H]2CNC2=O)CCCCC1 [Example 13, 1-Methyl-N-[(3S)-2-oxoazetidin-3-yl]-cyclohexane-carboxamide], the “r-NAAA UPLC/MS assay (n.a.)” value was “n.a. (n.a. = <10% inhib.@100 μM)”.

Same assay, conditions: rat lung lysosomal NAAA preparation
O=C(CCCCC1CCCCC1)N[C@H]1CNC1=O [Example 16, 5-Cyclohexyl-N-[(3S)-2-oxoazetidin-3-yl]-pentanamide] showed an IC50 of 1 µM.
CCCCC/C=C/CC(=O)N[C@H]1CNC1=O [Example 5, (E)-N-[(3S)-2-Oxoazetidin-3-yl]-non-3-enamide] gave an IC50 of 2.3 µM.
Work on O=C(CCCCCC1CCCCC1)N[C@H]1CNC1=O [Example 17, 6-Cyclohexyl-N-[(3S)-2-oxoazetidin-3-yl]-hexanamide] yielded an IC50 of 0.13 µM.
In the case of CCCCC/C=C\CC(=O)N[C@H]1CNC1=O [Example 6, (Z)—N-[(3S)-2-Oxoazetidin-3-yl]-non-3-enamide], the IC50 is reported as 0.68 µM.
